Assay results published in publication PMC4696656, “Insights into the Mechanism of Action of Bactericidal Lipophosphonoxins” (PLoS ONE, 2015).
Values after ≈ are worked out from the molar mass of the structure shown. Values joined by “and” are separate entries in the source; they are usually repeats but may differ in a detail not shown here. Equal entries are not always repeated. Where two headings read alike, the source gives them in different places.

Tests used:
Bacillus subtilis = assay: MIC, standard microdilution method; conditions: Bacillus subtilis
Streptococcus agalactiae [1] = assay: Induction of resistance by repeated passages, MIC after each step; assay type: cell-based
[2] = system: Enterococcus faecalis CCM 4224; assay: MIC, standard microdilution method; conditions: CCM4224, 24 h
Streptococcus agalactiae [3] = assay: MIC, standard microdilution method; conditions: 24 h
[4] = Carboxyfluorescein leakage assay, LUV from erythrocyte lipids; assay type: biochemical, human; conditions: LPPO 0.8 mg/L, 60 μM phospholipid, 25°C
Procedure: After evaporation of the solvent in vaccuo at 40°C, the phospholipids were dissolved in chloroform, filtered through glass fiber filters (Whatman) and concentrated under a stream of nitrogen. The lipid samples were stored at -80°C and used for liposome preparation. Vesicles to be used in the carboxyfluorescein (CF) leakage assay were prepared by mixing the appropriate amount of lipids (1 mg/ml) with chloroform/methanol 2:1 (v/v). The solvent was subsequently evaporated under a nitrogen gas stream obtaining a thin film on the walls of a glass tube. […] The release of vesicle contents after adding LPPO solutions was evaluated by the increased fluorescence intensity of CF released into the milieu which we express as the percentage of leakage. […] Maximum release of CF fluorescence (F max) was induced by lysing the vesicles with 0.1% (v/v) Triton X-100. Fluorescence intensity was monitored in time (excitation at 480 nm, emission at 515 nm) at 25°C using FluoroMax-3 (Jobin Yvon, Horriba) spectrofluorometer. The following equation was used to calculate the percent of CF leakage: % CF leakage = [(F–F 0)/(F max−F 0)] × 100, where F is the actual fluorescence intensity and F 0 is the fluorescence intensity before addition of the permeabilizing agent. […]

[5] = system: Salmonella typhimurium TA98 and TA100; assay: Ames test for genotoxicity (Salmonella/microsome reversion assay, without S9); assay type: cell-based; conditions: at relevant concentrations, without metabolic activation
Procedure: The Salmonella/microsome reversion assay was conducted using the plate incorporation procedure described by Marona and Ames. The Ames test was performed utilizing two different bacterial strains of Salmonella typhimurium: strain TA98 for frame-shift mutations and strain TA100 for base-pair substitution. All strains were maintained and stored according to the standard procedures. All samples were tested without metabolic activation (S9) to detect direct mutagenic compounds. The test was performed with plate incorporation method in duplicate at the increasing concentrations. The plates were incubated at 37°C for 72 h in the dark. The number of his+ revertants was estimated with the counter. Results were expressed as mutation ratios (Φ) calculated as the number of colonies on test plates/number of colonies on solvent control plates. A compound is considered mutagenic when Φ is more than 2 and a dose–response effect is evident.

[6] = system: Enterococcus faecalis CCM 4224; assay: Induction of resistance by repeated passages, MIC after each step; assay type: cell-based
[7] = system: Clostridium perfringens CCM 4435; assay: microbe, parasite or virus in culture; assay type: cell-based; conditions: CCM4435
[8] = system: Staphylococcus epidermidis 8700/B; assay: MIC, standard microdilution method; conditions: 24 h
Solubility in water = assay type: physicochemical
[9] = system: Staphylococcus aureus CCM 4223; assay: MIC, standard microdilution method; conditions: CCM4223, 24 h
[10] = Critical micellar concentration (conductometry); assay type: physicochemical; conditions: 37°C
Procedure: Critical micellar concentration (CMC) values were measured (using conductometry method, COND 7, XS Laboratories instrument) and calculated according to literature procedure. LogD values were calculated using software package ACD Labs.

[11] = read-out: MIC after induction step, step 1
[12] = read-out: MIC after induction step, step 2
[13] = read-out: MIC after induction step, step 3
[14] = read-out: MIC after induction step, step 4
[15] = read-out: MIC after induction step, step 5
[16] = read-out: MIC after induction step, step 6
[17] = read-out: MIC after induction step, step 7
[18] = read-out: MIC after induction step, step 8
[19] = read-out: MIC after induction step, step 9
[20] = read-out: MIC after induction step, step 10
[21] = read-out: MIC after induction step, step 11
[22] = read-out: MIC after induction step, step 12
[23] = read-out: MIC after induction step, step 13
[24] = read-out: MIC after induction step, step 14
[25] = CCM4224, read-out: MIC after induction step, step 1
[26] = CCM4224, read-out: MIC after induction step, step 2
[27] = CCM4224, read-out: MIC after induction step, step 3
[28] = CCM4224, read-out: MIC after induction step, step 4
[29] = CCM4224, read-out: MIC after induction step, step 5
[30] = CCM4224, read-out: MIC after induction step, step 6
[31] = CCM4224, read-out: MIC after induction step, step 7
[32] = CCM4224, read-out: MIC after induction step, step 8
[33] = CCM4224, read-out: MIC after induction step, step 9
[34] = CCM4224, read-out: MIC after induction step, step 10
[35] = CCM4224, read-out: MIC after induction step, step 11
[36] = CCM4224, read-out: MIC after induction step, step 12
[37] = CCM4224, read-out: MIC after induction step, step 13
[38] = CCM4224, read-out: MIC after induction step, step 14

Molecule `CCCCCCCCCCCCCCCCOCCCOP(=O)(CCN1C[C@@H](O)[C@H](O)C1)OC[C@H]1O[C@@H](n2ccc(=O)[nH]c2=O)[C@H](O)[C@@H]1O` (some centres unmarked) [DR5047] has an MIC (Bacillus subtilis; 24 h, 35°C, brain heart infusion broth) of 6.25 µg/mL (≈ 8.68 µM), an MIC (Streptococcus agalactiae [1]; [11]) of 6.2 µg/mL (≈ 8.61 µM) and an MIC (Streptococcus agalactiae [1]; [12]) of 6.2 µg/mL (≈ 8.61 µM). It also gave an MIC (Streptococcus agalactiae [1]; [13]) of 6.2 µg/mL (≈ 8.61 µM), an MIC (Streptococcus agalactiae [1]; [14]) of 6.2 µg/mL (≈ 8.61 µM) and an MIC (Streptococcus agalactiae [1]; [15]) of 6.2 µg/mL (≈ 8.61 µM). It also gave an MIC (Streptococcus agalactiae [1]; [16]) of 6.2 µg/mL (≈ 8.61 µM), an MIC (Streptococcus agalactiae [1]; [17]) of 3.1 µg/mL (≈ 4.31 µM) and an MIC (Streptococcus agalactiae [1]; [18]) of 6.2 µg/mL (≈ 8.61 µM). It also gave an MIC (Streptococcus agalactiae [1]; [19]) of 6.2 µg/mL (≈ 8.61 µM), an MIC (Streptococcus agalactiae [1]; [20]) of 6.2 µg/mL (≈ 8.61 µM) and an MIC (Streptococcus agalactiae [1]; [21]) of 6.2 µg/mL (≈ 8.61 µM). For the same molecule, the MIC (Streptococcus agalactiae [1]; [22]) was 6.2 µg/mL (≈ 8.61 µM), the MIC (Streptococcus agalactiae [1]; [23]) was 6.2 µg/mL (≈ 8.61 µM) and the MIC (Streptococcus agalactiae [1]; [24]) was 6.2 µg/mL (≈ 8.61 µM). The MIC [2] was 6.25 µg/mL (≈ 8.68 µM), the MIC (Streptococcus agalactiae [3]) was 6.25 µg/mL (≈ 8.68 µM) and the “CF release, % of the maximum (Triton X-100)” value [4] was 4%. For the same molecule, the “genotoxicity (mutagenic potential)” value [5] was “Neither of the two compounds was found to be genotoxic”, the MIC [6, 25] was 12.5 µg/mL (≈ 17.4 µM) and the MIC [6, 26] was 12.5 µg/mL (≈ 17.4 µM). The MIC [6, 27] was 12.5 µg/mL (≈ 17.4 µM), the MIC [6, 28] was 12.5 µg/mL (≈ 17.4 µM) and the MIC [6, 29] was 25 µg/mL (≈ 34.7 µM). The MIC [6, 30] was 25 µg/mL (≈ 34.7 µM), the MIC [6, 31] was 25 µg/mL (≈ 34.7 µM) and the MIC [6, 32] was 25 µg/mL (≈ 34.7 µM). For the same molecule, the MIC [6, 33] was 25 µg/mL (≈ 34.7 µM), the MIC [6, 34] was 50 µg/mL (≈ 69.5 µM) and the MIC [6, 35] was 25 µg/mL (≈ 34.7 µM). For the same molecule, the MIC [6, 36] was 25 µg/mL (≈ 34.7 µM), the MIC [6, 37] was 25 µg/mL (≈ 34.7 µM) and the MIC [6, 38] was 25 µg/mL (≈ 34.7 µM). The MIC [7] was 12.5 µg/mL (≈ 17.4 µM), the MIC [8] was 3.12 µg/mL (≈ 4.34 µM) and the solubility (Solubility in water) was > 10000 µg/mL. For the same molecule, the MIC [9] was > 200 µg/mL and the “CMC in H2O” value [10] was 3 mM and 2 g/L.

In the case of `CCCCCCCCCCCCCCCCOP(=O)(CCN1C[C@@H](O)[C@H](O)C1)OC[C@H]1O[C@@H](n2ccc(=O)[nH]c2=O)[C@H](O)[C@@H]1O` (some centres unmarked) [DR5026], the MIC (Bacillus subtilis; 24 h) is reported as 3.12 µg/mL (≈ 4.72 µM), the MIC (Bacillus subtilis; read-out: MIC against wt B. subtilis, B. subtilis 168, as stated for the resistance selection experiment) is reported as ~3 µg/mL (≈ 4.53 µM) and the MIC (Streptococcus agalactiae [1]; [11]) is reported as 3.1 µg/mL (≈ 4.68 µM). It also gave an MIC (Streptococcus agalactiae [1]; [12]) of 3.1 µg/mL (≈ 4.68 µM), an MIC (Streptococcus agalactiae [1]; [13]) of 3.1 µg/mL (≈ 4.68 µM) and an MIC (Streptococcus agalactiae [1]; [14]) of 3.1 µg/mL (≈ 4.68 µM). It also gave an MIC (Streptococcus agalactiae [1]; [15]) of 3.1 µg/mL (≈ 4.68 µM), an MIC (Streptococcus agalactiae [1]; [16]) of 3.1 µg/mL (≈ 4.68 µM) and an MIC (Streptococcus agalactiae [1]; [17]) of 6.2 µg/mL (≈ 9.37 µM). For the same molecule, the MIC (Streptococcus agalactiae [1]; [18]) was 6.2 µg/mL (≈ 9.37 µM), the MIC (Streptococcus agalactiae [1]; [19]) was 3.1 µg/mL (≈ 4.68 µM) and the MIC (Streptococcus agalactiae [1]; [20]) was 3.1 µg/mL (≈ 4.68 µM). It also gave an MIC (Streptococcus agalactiae [1]; [21]) of 3.1 µg/mL (≈ 4.68 µM), an MIC (Streptococcus agalactiae [1]; [22]) of 6.2 µg/mL (≈ 9.37 µM) and an MIC (Streptococcus agalactiae [1]; [23]) of 6.2 µg/mL (≈ 9.37 µM). It also gave an MIC (Streptococcus agalactiae [1]; [24]) of 6.2 µg/mL (≈ 9.37 µM), an MIC [2] of 3.12 µg/mL (≈ 4.72 µM) and an MIC (Streptococcus agalactiae [3]) of 3.12 µg/mL (≈ 4.72 µM). For the same molecule, the “CF release, % of the maximum (Triton X-100)” value [4] was 8%, the “genotoxicity (mutagenic potential)” value [5] was “Neither of the two compounds was found to be genotoxic” and the MIC [6, 25] was 6.2 µg/mL (≈ 9.37 µM). For the same molecule, the MIC [6, 26] was 6.2 µg/mL (≈ 9.37 µM), the MIC [6, 27] was 6.2 µg/mL (≈ 9.37 µM) and the MIC [6, 28] was 6.2 µg/mL (≈ 9.37 µM). The MIC [6, 29] was 6.2 µg/mL (≈ 9.37 µM), the MIC [6, 30] was 12.5 µg/mL (≈ 18.9 µM) and the MIC [6, 31] was 12.5 µg/mL (≈ 18.9 µM). The MIC [6, 32] was 12.5 µg/mL (≈ 18.9 µM), the MIC [6, 33] was 12.5 µg/mL (≈ 18.9 µM) and the MIC [6, 34] was 12.5 µg/mL (≈ 18.9 µM). The MIC [6, 35] was 12.5 µg/mL (≈ 18.9 µM), the MIC [6, 36] was 12.5 µg/mL (≈ 18.9 µM) and the MIC [6, 37] was 12.5 µg/mL (≈ 18.9 µM). It also gave an MIC [6, 38] of 12.5 µg/mL (≈ 18.9 µM), an MIC [7] of 12.5 µg/mL (≈ 18.9 µM) and an MIC [8] of 3.12 µg/mL (≈ 4.72 µM). The solubility (Solubility in water) was > 10000 µg/mL, the MIC [9] was 25 µg/mL (≈ 37.8 µM) and the “CMC in H2O” value [10] was 4 mM and 3 g/L.
